Article PMC3736071, “Probing horseradish peroxidase catalyzed degradation of azo dye from tannery wastewater” (SpringerPlus, 2013)

Tested on: T1, horseradish peroxidase (HRP)
T1 construct: gene PRXC1A
Experiment: dye decolorization at […] nm, Lineweaver-Burk plot
Assay type: biochemical, Armoracia rusticana
Settings: free HRP; H2O2 co-substrate (14 μL of 30% w/v per 3 mL, fixed); pH 6.6; 30°C; commercial dye; read-out: apparent Km

Km: 68 µM
Structure (SMILES): O=S(=O)(O)c1cccc(N=Nc2ccc(N=Nc3ccc(Nc4ccccc4)c4c(S(=O)(=O)O)cccc34)c3ccccc23)c1 [C.I. Acid Blue 113]
